In US20080112899A1, “Carboxamides and Their Use” (priority 2004, published 2008):

test system: trained panel of 4 to 8 people; assay: Cooling intensity by isointensity method, trained panel tasting aqueous solutions versus WS 23; format: in vivo, human; settings: aqueous solutions tasted, compared to aqueous solution of reference WS 23 at 2 ppm
Method: The cooling intensity of the compounds was determined by a trained panel of 4 to 8 people according to the isointensity method as described below.
Aqueous solutions of various concentrations of a chemical compound are prepared and tasted. The cooling intensity of each solution was compared to that of an aqueous solution of the reference compound at 2 ppm, namely N,2,3-trimethyl-2-isopropylbutanamde (WS 23).

First: CC(C)C(C)(C(=O)Nc1ccc2c(c1)OCO2)C(C)C [Ex. 2H, N-Benzo[1,3]dioxol-5-yl 2-methyl-2-isopropylisovaleramide]
Second: CC(C)C(C)(C(=O)Nc1ccc(C#N)cc1)C(C)C [Ex. 2A, N-(4-Cyanophenyl)2-methyl-2-isopropylisovaleramide]
The rel. cooling intensity of the first is lower: 0.9 for the first, 1.5 for the second.

Going from `COc1ccc(NC(=O)C(C(C)C)C(C)C)cc1` [Ex. 2E, N-(4-Methoxyphenyl)2-isopropylisovaleramide] to `CC(C)C(C(=O)Nc1ccc(C#N)cc1)C(C)C` [Ex. 1, N-(4-cyanophenyl) 2-isopropylisovaleramide], the rel. cooling intensity rises from 1.1 to 1.3.

Compared with `COc1ccc(NC(=O)C(C)(C(C)C)C(C)C)c(OC)c1` [Ex. 2G], `COc1ccc(NC(=O)C(C)(C(C)C)C(C)C)cc1` [Ex. 2B, N-(4-Methoxyphenyl)2-methyl-2-isopropylisovaleramide] is higher in rel. cooling intensity: 0.9 for the first, 1.1 for the second.

Going from `COc1cc(CNC(=O)C(C)(C(C)C)C(C)C)ccc1O` [Ex. 2I, N-Vanillyl 2-methyl-2-isopropylisovaleramide] to `CC(C)C(C)(C(=O)Nc1ccc(CC#N)cc1)C(C)C` [Ex. 2C, N-(4-Cyanomethyl-phenyl)-2-methyl-2-isopropyl-isovaleramide], the rel. cooling intensity falls from 0.8 to 0.2.

`CC(C)C(C(=O)Nc1ccccc1C#N)C(C)C` [Ex. 2F, N-(2-Cyanophenyl)2-isopropylisovaleramide] was tested, and the rel. cooling intensity was 1.7.
